Experimental data: US20180179292A1, “RKIP AGONISM IN THE TREATMENT AND PREVENTION OF HEART FAILURE” (Leibniz-Institut für analytische Wissenschaften- ISAS-e.V., priority 2015, published 2018)
Marks after values point to notes of the source that are not given here.

Experiments:
Wt and RKIP-tg mice = experiment: Left ventricular catheterization with esmolol infusion; type: in vivo, mouse
Protocol: For left ventricular pressure measurements we inserted a 1.4F pressure catheter (Millar Instruments) into the right carotid artery and advanced it to the left ventricular chamber. During measurement we injected esmolol (12 μg/min for 1 min) or dobutamine (in increasing doses: 75, 150, 375, 750 and 1500 ng/min) into the V. jugularis. We analyzed data using the Chart software (Chart5.4, AD Instruments) as previously described^60. We excluded mice with heart rates below 450 bpm (or below 430 bpm in the case of β1KO or RKIP-tg/β1KO mice).

[1] = system: RyR2, PLN and TnI phosphorylation; experiment: Isoproterenol infusion with or without ICI 118,551, immunoblot of heart lysates; type: in vivo, mouse
From the text: Immunoblot quantification of (a) pPLN(S16), (b) pTnI (SS23/24), (c) pRyR2(S2808) and pRyR2(S2814) in heart lysates of untreated (Con) and isoproterenol-treated mice and mice treated with Iso in combination with ICI 118,551. pPLN(S16), n=13; pTnI(SS23/24), n=11; pRyR2(S2808), n=12; n are mice per group; mean±SEM; *, p<0.05 vs. Con. Immunoblot analysis of Con vs. Iso for RyR2 phosphorylation (pRyR2[S2808] and pRyR2[S2814]) show significant differences when a t-test analysis is applied (#, p<0.05 vs. Con).
We intravenously infused isoproterenol (1.1 μg/min for 2 min) with or without ICI 118,551 (0.14 μg/min for 2 min) via the V. jugularis as indicated. We pretreated mice with pertussis toxin (PTX; 300 μg/kg body weight; i.p) for 24 h as indicated. Mice were sacrificed and hearts were used for Western blot analyses. Efficiency of Gαi inhibition by PTX was evaluated by in vitro PTX-catalyzed ADP ribosylation in the presence of [^32P]-nicotinamide adenine dinucleotide ([^32P]NAD). […] After filtration through a 200 μm-mesh, we determined the protein content of the tissue homogenate and then incubated 30 μg of protein with 0.1 μM [^32P]NAD (800 Ci/mmol) in a buffer containing 20 mM Tris-HCl (pH7.6), 15 mM thymidine, 1 mM EDTA, 1 mM ATP, 0.1 mM GDP and 1 μg of PTX (preactivated) for 1 h at 30° C. […] Proteins were separated on SDS-PAGE and incorporated [^32P] was assessed by Phospholmager analysis. […]

Wt mice = experiment: Chronic isoproterenol infusion via osmotic minipumps in Wt mice (echocardiography, interstitial fibrosis); type: in vivo, mouse; conditions: mean ± SEM
Protocol: (§1) Echocardiographic measurements and histological analysis of interstitial fibrosis of wild-type (Wt) and RKIP transgenic (RKIP-tg) mice before and after 4 weeks of isoproterenol application via osmotic minipumps (Iso; 30 mg/kg/d). Shown are measurements of wall thicknesses (interventricular septal [IVS] and left ventricular posterior wall [LVPW]), left ventricular internal dimension (LVID), fractional shortening (FS), ejection fraction (EF), heart rates and the quantification of interstitial fibrosis (arbitrary units) of Sirius Red-stained left ventricular myocyrdial sections. Values represent mean (±SEM); *, p<0.05 vs. Con; #, p<0.05 vs. Wt Iso; $, p<0.05 vs. Wt Con. n represent the number of mice (for the analysis of interstitial fibrosis one transverse section was analyzed per mouse).
(§2) Osmotic minipumps (Alzet, model 1004) were implanted subcutaneously in male 8-week old Wt and RKIP-tg mice (C57/BL/6J background). The implanted pumps continuously released isoproterenol for 4 weeks (30 mg/kg body weight/day).
(§3) We performed transthoracic echocardiograms in a blinded manner using the Vevo700 or Vevo2100 high-resolution imaging systems (VisualSonics) and a 30-MHz probe. We obtained values for end-diastolic septal and posterior wall thicknesses as well as end-diastolic and -systolic internal diameters from 2D M-mode images in the short axis view at the proximal level of the papillary muscles. We obtained peak blood flow velocities at the site of TAC [Vmax (millimetres per second)] from pulsed-waved Doppler measurements. We calculated fractional shortening (FS), ejection fraction (EF), and aortic pressure gradients (mmHg) by VisualSonics Cardiac Measurements software. The shown data represent averages of at least six cardiac cycles per animal. We excluded mice with heart rates below 450 bpm (or below 430 bpm in the case of β1KO or RKIP-tg/(β1KO mice).
(§4) After fixation of hearts in 4% (m/v) paraformaldehyde, hearts were embedded in paraffin. Sections (2 μm) were stained with haematoxylin and eosin or with Sirius Red as described previously^60. For quantification of fibrosis, we stained left ventricular sections with Sirius Red and subsequently analyzed […] by semi-automated image analyses in blinded manner. For immunostaining, we used Vectastain Elite ABC Reagent with biotinylated goat-anti-rabbit IgG in combination with diaminobenzidine (DAB) and glucose oxidase (Sigma) similarly as described previously^60,61. We counterstained nuclei with haematoxylin.

RKIP-tg mice = experiment: Chronic isoproterenol infusion via osmotic minipumps in RKIP-tg mice (echocardiography, interstitial fibrosis); type: in vivo, mouse; conditions: mean ± SEM
Protocol: as §1, §2, §3, §4

RKIP [2] = experiment: RKIP activation (Ser153 phosphorylation, pRKIP) in neonatal rat cardiomyocytes (Western blot); type: cell-based; conditions: NRCM, 25 and 75 μg/ml, 30 h
Protocol: NRCM were treated with rituximab (25 μg u. 75 μg/ml) or bevacizumab (25 μg u. 75 μg/ml) for 30 h and Western blot analysis performed. Gβ was used as loading control.
NRCM were treated with rituximab (25 μg u. 75 μg/ml) for 30 h and Western blot analysis and quantification using ImageJ was performed. Gβ was used as loading control. SEM, n=3, *, p=0.0004
NRCM were treated with rituximab (25 μg u. 75 μg/ml) for 30 h and Western blot analysis and quantification using ImageJ was performed. Gβ was used as loading control. SEM, n=4, *, p=0.0004
We homogenized left ventricular tissue or cells in lysis buffer (1% [v/v] Triton-X-100, 5 mM EDTA, 300 mM NaCl, 50 mM Tris [pH7.4], supplemented with protease and phosphatase inhibitors). We removed cell debris by centrifugation (10 min, 1000×g, 4° C.) and used lysates for Western blot analysis: We determined protein concentrations and used equal amounts of protein for immunoblot analysis. We separated proteins by SDS-PAGE and transferred them to PVDF membranes. […] To average our immunoblot experiments and to present semi-quantitative results, we quantified immunoblot signals using ImageJ. […]

RKIP [3] = experiment: RKIP expression in neonatal rat cardiomyocytes (Western blot); type: cell-based; conditions: NRCM, 75 μg/ml, 30 h
Protocol: 500 000 NRCM/Well were plated in 12 Well plates, cultured for 24 h and subsequently treated with the indicated compounds for 30 h inkubiert. Cells were lysed, Western blots performed and signals were quantified using ImageJ (n=11). Shown are SEM; *. p=0.0003
We homogenized left ventricular tissue or cells in lysis buffer (1% [v/v] Triton-X-100, 5 mM EDTA, 300 mM NaCl, 50 mM Tris [pH7.4], supplemented with protease and phosphatase inhibitors). We removed cell debris by centrifugation (10 min, 1000×g, 4° C.) and used lysates for Western blot analysis: We determined protein concentrations and used equal amounts of protein for immunoblot analysis. We separated proteins by SDS-PAGE and transferred them to PVDF membranes. We blocked membranes for 1 h with 5% (w/v) fat-free milk dissolved in 10 mM Tris (pH7.6), 100 mM NaCl and 0.1% (v/v) Tween-20, incubated membranes with primary antibodies overnight at 4° C., thereafter with secondary antibodies conjugated with horseradish peroxidase (HRP) and used the Pierce™ ECL Plus Western blotting kit for detection. To average our immunoblot experiments and to present semi-quantitative results, we quantified immunoblot signals using ImageJ.
For the detection of RKIP phosphorylation (“activation as GRK2 inhibitor”), we used antibodies directed againt Ser153-phosphorylation of RKIP (pRKIP[hSer153], sc-32623, Santa Cruz Biotechnology; pRKIP [rSer153], sc-32622, Santa Cruz Biotechnology). For RKIP expression levels we used antibodies directed against RKIP (RKIP, sc5422, Santa Cruz Biotechnology; RKIP antibodies raised against recombinant GST-RKIP as antigen (Lorenz et al., 2003).
We tested an anti-CD20 antibody (such as rituximab) and an anti-VEGF antibody (such as bevacizumab) and several other therapeutic antibodies (obtained from the hospital pharmacy, Uniklinik Wiirzburg) on RKIP expression and RKIP activation (Ser153 phosphorylation) in neonatal rat cardiomyocytes as well as cardiomyocyte contractility.

[4] = system: neonatal rat cardiomyocytes (NRCM); experiment: Contractile activity of neonatal rat cardiomyocytes; type: cell-based; conditions: in the presence of isoprenaline (50 nM), 33° C., beats per minute
Protocol: NRCM were cultured for 24 h and transduced as indicated with a control virus (LacZ) or a virus encoding RKIP-wt and/or treated with rituximab as indicated. The spontaneous contractions were measured at 33° C. for one minute and normalized for each experiment to LacZ under unstimulated conditions. NRCM were then stimulated with isoproterenol (50 nM) and after 2 min contractions were counted again. SEM; *, p<0.0001, n=5
Neonatal rat cardiomyocytes were isolated as described (Lorenz et al. Nature 2003, 426:574-579; Vidal et al., Cardiovasc. Res. 2012, 96:255-264). Cardiomyocytes were transduced by adenoviruses or treated with indicated antibodies. To monitor the contractile activity of cardiomyocytes, live cells were examined on a Zeiss Axiovert 135 microscope.

[5] = 4 weeks isoproterenol 30 mg/kg/d via osmotic minipumps
[6] = 4 weeks isoproterenol 30 mg/kg/d, Sirius Red-stained left ventricular sections

Question: Which “rates of contraction and relaxation (dP/dtmax, dP/dtmin)” value (Wt and RKIP-tg mice; esmolol 12 μg/min for 1 min, RKIP-tg mice) does the source give for COC(=O)CCc1ccc(OCC(O)CNC(C)C)cc1 (stereo not drawn) [Esmolol, esmolol] here?
Answer: largely attenuated increased rates of contraction and relaxation

Question: And the heart rates (Wt and RKIP-tg mice; esmolol 12 μg/min for 1 min into V. jugularis, Wt and RKIP-tg mice)?
Answer: effectively reduced heart rates

Question: Cc1ccc(OCC(O)C(C)NC(C)C)c2c1CCC2 (stereo not drawn) [ICI 118,551] was tested. Which “RyR2(S2808/S2814) phosphorylation” value ([1]; isoproterenol plus ICI 118,551 (0.14 μg/min for 2 min i.v.) vs. isoproterenol alone) did it give?
Answer: much stronger phosphorylation of RyR2

Question: What about the “PLN and TnI phosphorylation” value ([1]; isoproterenol plus ICI 118,551 vs. isoproterenol alone) of the same molecule?
Answer: hardly affected PLN and TnI phosphorylation

Question: CC(C)NCC(O)c1ccc(O)c(O)c1 (stereo not drawn) [Iso, isoproterenol] was tested. Which EF (Wt mice; [5]) did it give?
Answer: 73.0 ± 2.52^$ %

Question: What about the FS (Wt mice; [5]) of the same molecule?
Answer: 41.6 ± 2.00^$ % of LVID

Question: What about the Heart rate (Wt mice; [5]) of the same molecule?
Answer: 654 ± 25* bpm

Question: What about the “IVS, end-diastolic” value (Wt mice; [5]) of the same molecule?
Answer: 0.74 ± 0.039* mm

Question: And the “LVID, end-diastolic” value (Wt mice; [5])?
Answer: 3.69 ± 0.172 mm

Question: And the “LVPW, end-diastolic” value (Wt mice; [5])?
Answer: 0.76 ± 0.036* mm

Question: What about the Interstitial fibrosis (Wt mice; [6]) of the same molecule?
Answer: 2.05 ± 0.336* arbitrary units

Question: And the EF (RKIP-tg mice; [5])?
Answer: 87.1 ± 1.64*^# %

Question: And the FS (RKIP-tg mice; [5])?
Answer: 55.9 ± 1.98*^# % of LVID

Question: And the Heart rate (RKIP-tg mice; [5])?
Answer: 668 ± 21* bpm

Question: What about the “IVS, end-diastolic” value (RKIP-tg mice; [5]) of the same molecule?
Answer: 0.81 ± 0.026* mm

Question: What about the “LVID, end-diastolic” value (RKIP-tg mice; [5]) of the same molecule?
Answer: 3.08 ± 0.086 mm

Question: And the “LVPW, end-diastolic” value (RKIP-tg mice; [5])?
Answer: 0.84 ± 0.022* mm

Question: And the Interstitial fibrosis (RKIP-tg mice; [6])?
Answer: 1.05 ± 0.263*^# arbitrary units

Question: With “bevacizumab: anti-VEGF antibody, recombinant humanized monoclonal IgG1” as the molecule, how does the “"active" RKIP (Ser153-phosphorylation)” value (RKIP [2]) read?
Answer: increased

Question: And the RKIP expression (RKIP [3])?
Answer: most up-regulation of RKIP expression

Question: panitumumab: anti-EGFR antibody was tested. Which RKIP expression (RKIP [3]) did it give?
Answer: up-regulation of RKIP expression

Question: With rituximab: anti-CD20 antibody as the molecule, how does the “"active" RKIP (Ser153-phosphorylation)” value (RKIP [2]) read?
Answer: increased

Question: And the NRCM contractility [4]?
Answer: increased NRCM contractility

Question: And the RKIP expression (RKIP [3])?
Answer: even more prominent up-regulation of RKIP
